Assay results: patent US9527817B2, “Compounds for treating peripheral; neuropathies and other neurodegenerative; disorders” (THE JOHNS HOPKINS UNIVERSITY, priority 2011, dated 2016)
“Also recorded” adds a separate entry of the source.

How the values were obtained:
[1] = test system: mouse model of HIV-associated sensory neuropathy; assay: Mouse model of HIV-associated sensory neuropathy; assay type: in vivo; details: 75 μg/kg/day; data not shown
diabetic rats = assay: Diabetic rats: distal axonal degeneration and autonomic testing; assay type: in vivo, rat; details: data not shown
primary DRG neurons = assay: Axon length assay, paclitaxel-induced distal axonal degeneration; assay type: cell-based, rat; details: 24 hours exposure, βIII-tubulin staining
Experimental: Measurements of axonal lengths to determine axonal degeneration induced by EQ and representative derivatives were done as described in Keswani et al., “FK506 is neuroprotective in a model of antiretroviral toxic neuropathy,” Annals of Neurology, 53(1):57-64 (2003). Initially, dorsal root ganglia (DRG) cells were harvested from embryonic rats (14.5 days old) according to standard protocol, then cells were plated onto collagen-coated glass coverslips and allowed to extend axons for 24 h in media (Neurobasal medium, 50 mM PS, 0.2% fetal bovine serum (FBS), 0.5 mM glutamine, 1×B-27 supplement, 0.2% glucose, 10 ng/mL glial cell line-derived neurotrophic factor (GDNF)). Paclitaxel (PTX), EQ and representative derivatives, or vehicle controls were added to the wells for another 24 h incubation. DRG cells were fixed with 4% paraformaldehyde and stained with anti-βIII-tubulin antibody to delineate the axons. Axon lengths were measured in multiple fields using a random sampling method as described by Keswani et al., 2003. All experiments were performed in triplicates and repeated twice. Statistical analysis was done using the ANOVA procedure. Correction for multiple comparisons was completed with Fisher's protected least significant difference. Bars marked with * indicate statistically significant differences with p<0.05.

[2] = test system: four different human breast cancer cell lines: MCE-7, SUM-159, TATD, and MDA-MB-231; assay: Antineoplastic activity of paclitaxel with or without EQ (cellular ATP levels); assay type: cell-based; details: paclitaxel co-administered with varying concentrations of EQ
Experimental: To determine the effect of EQ on the antineoplastic activity of paclitaxel, the conditions for culturing four cancer cell lines and measuring the ATP levels were optimized for the 96-well plate format. Briefly, 1500 cells/well in media (MDA-MB-231 in DMEM with 10% FBS; MCF-7 in DMEM with 10% FBS; TATD in RPMI with 10% FBS; SUM159 in DMEM/F-12 (250 mL/250 mL) with 5% FBS, 500 μL of 10 mg/mL insulin and 25 μL of 10 mg/mL hydrocordisol) were plated in 96-well plates for 24 h. Constant concentrations of paclitaxel (PTX) with or without EQ were added to the wells for another 24 h. Cellular ATP levels were measured using ViaLight Plus kit (Cambrex) according to the manufacturer's protocol on a LMaxI microplate reader (Molecular Devices, Palo Alto, Calif.).

hsp90 [3] = assay: Colorimetric (malachite green) determination of hsp90 ATPase activity; assay type: biochemical; details: wide dose range of EQ
Experimental: The assay procedure for the colorimetric determination of ATPase activity was based on Rowlands et al., “High-throughput Screening Assay for Inhibitors of Heat-Shock Protein 90 ATPase Activity,” Analytical Biochemistry 327:176-183 (2004). The malachite green reagent was prepared on the day of use. It contained malachite green (Sigma Aldrich, St. Louis, Mo.; 0.0812%, w/v), polyvinyl alcohol (Sigma Aldrich, St. Louis, Mo.; 2.32%, w/v), ammonium molybdate (Sigma Aldrich, St. Louis, Mo.; 5.72%, w/v, in 6 M HCl), and UltraPure Distilled Water (Invitrogen, Life Technologies, Carlsbad, Calif.), mixed in the ratio 2:1:1:2. The reagent was initially dark brown, and then it changed to a golden yellow after 2 h at room temperature, which meant it was ready for use. The assay buffer (pH 7.4) was 100 mM Tris-HCl, 20 mM KCl, 6 mM MgCl2.
The test compounds were dissolved in 100% (v/v) DMSO to give a stock concentration of 10 mM. This solution was diluted to six appropriate concentrations with test compounds in the assay buffer. 5 μL of each compound solution was added to each well of the Perkin-Elmer 96-well assay plate. The first two rows of the 96-well plate contained DMSO only, representing the control and background values, respectively. […] The absorbance at 620 nm was measured using the SpectraMAX 340PC microplate reader (Molecular Devices, Palo Alto, Calif.). […]

hsp90 [4] = assay: Neuroprotection by EQ with hsp90 siRNA or control siRNA; assay type: cell-based, rat
Experimental: For the RNA inhibition experiments, transfection with siRNA was carried out according to the manufacturer's protocol. 50B11 cells were plated in 6-well plates in culture medium (Neurobasal medium, 10% fetal bovine serum (FBS), 0.5 mM glutamine, 1×B-27 supplement, 0.2% glucose) without antibiotics overnight and allowed to reach 50-70% confluence. On the second day, 1 μL siRNA oligomer (Ambion, Life Technologies, Carlsbad, Calif.) was diluted in 250 μL Opti-MEM media, and 5 μL Lipofectation 2000 (Invitrogen, Life Technologies, Carlsbad, Calif.) in another 250 μL Opti-MEM media. After 5 minutes incubation, dilutions were combined and incubated for 20 minutes at RT and then the oligomer-Lipofectation 2000 complexes were added to each well. […]
The protein isolation, protein electrophoresis (SDS-PAGE) and Western blotting assays were performed according to the instructions of the manufacturer. […] The measurements of total protein concentrations were performed using BCA kits (Thermo Scientific, Logan, Utah) on SpectraMax 340PC microplate reader (Molecular Devices, Palo Alto, Calif.). Samples (30 μg of total protein per well) and standards (SeeBlue® Plus2 Pre-Stained Standard, Invitrogen, Life Technologies, Carlsbad, Calif.) were loaded onto the wells (Ready Gel® 4-15% Tris-HCl, 50 μL^−1 gel; Bio-Rad, Hercules, Calif.). […]

hsp90 [5] = assay: Binding efficacy of paclitaxel to hsp90 in the presence of EQ
Experimental: Further, it was known that paclitaxel binds to hsp90. To determine if EQ was binding to the same site and displacing paclitaxel, the binding efficacy of paclitaxel to hsp90 was measured. […] It is possible that EQ binds to hsp90 and modifies its chaperone activity for an important client protein.

AJ mice treated with PTX = assay: Mouse model of chemotherapy induced peripheral neuropathy (paclitaxel); assay type: in vivo; details: various doses daily, PTX 25 mg/kg i.v. days 1, 3, 5
Experimental: In this model, animals develop thermal hypoalgesia and reduction in sensory nerve action potential (SNAP) amplitudes. AJ mice were given three doses of PTX at 25 mg/kg intravenously every other day (days 1, 3 and 5). Vehicle control or EQ was administered daily starting on day 1 and tissues were harvested at day 19. Immediately before tissue harvest, sensory nerve conduction studies and thermal sensation measurements were carried out.

recombinant hsp90 = assay: Fluorescence quenching binding assay; details: 25° C.
Experimental: For the fluorescence-quenching assay, fluorescence intensity was recorded on a SpectraMax Gemini XS plate reader (Molecular Devices, Palo Alto, Calif.) using a 96-well black PCR plate (Thermo Scientific, Logan, Utah). Compounds (10 mM in ethanol) were diluted with 50 mM Tris-HCl (pH 7.4) to obtain a solution with a 15 μM final concentration. Aliquots of proteins were added to the compounds solution and mixed with micro pipette by gently pulling in and drawing out the solution. Fluorescence intensities (λex=350 nm, λem=450 nm) were measured at 25° C. Equilibrium dissociation constant KD was obtained by fitting the data using the nonlinear least squares option of the GraphPad Prism software. All experiments were completed in duplicates and repeated at least three times.
To determine the binding efficiency, fluorescence quenching experiments were carried out with recombinant hsp90.

Ethoxyquin [EQ]
distal axonal degeneration [1]: prevents distal axonal degeneration
distal axonal degeneration (diabetic rats; 75 μg/kg/day): reverses distal axonal degeneration
erectile dysfunction induced by diabetes (autonomic testing) (diabetic rats): prevents erectile dysfunction induced by diabetes
distal axonal degeneration induced by PTX (axon lengths) (primary DRG neurons): partially prevented distal axonal degeneration induced by PTX
effect on paclitaxel's reduction of cell viability (relative ATP levels) [2]: did not affect the ability of paclitaxel to reduce cell viability; also recorded: no significant change in reduced cell viability was observed
effect on ATPase activity of hsp90 (hsp90 [3]): does not affect the ATPase activity of hsp90; also recorded: does not alter the ATPase activity of hsp90
neuroprotection against paclitaxel with hsp90 siRNA (hsp90 [4]; PTX+100 nM EQ (+) siRNA, hsp90 downregulated): the neuroprotection by EQ disappeared; also recorded: reverses neuroprotection by EQ
neuroprotection against paclitaxel without hsp90 siRNA (hsp90 [4]; PTX+100 nM EQ (−) siRNA): Neuroprotection by EQ can be seen
effect on binding of paclitaxel to hsp90 (hsp90 [5]): did not affect the binding of paclitaxel to hsp90; also recorded: does not alter the binding efficacy of paclitaxel to hsp90
sensory nerve action potential (SNAP) amplitude (AJ mice treated with PTX; tail sensory nerves): prevented this reduction in SNAP amplitude
distal axonal degeneration and intraepidermal nerve fiber density in the footpads (AJ mice treated with PTX): loss of distal axons was prevented
thermal hypoalgesia induced by PTX (AJ mice treated with PTX): prevented
Kd (recombinant hsp90): 0.28 µM
